Experimental data as given in ChEMBL document CHEMBL1127151, “Derivatives of cyclosporin at position 2 as probes for cyclophilin” (1993).

Experiments:
[1] = In vitro binding affinity of compound was measured to Cyclophilin under competitive ELISA system, activity relative to compound 1
[2] = system: T-cell; assay: The immunosuppressive activity of compound was measured with the help of a reporter gene assay (IL2_RGA), activity relative to compound 1; assay type: functional, Homo sapiens
[3] = species: Mus musculus; assay: The immunosuppressive activity of compound was measured with the help of a mixed lymphocyte reaction in mouse (MLR_M), activity relative to compound 1; assay type: functional

Row | Ratio [1] | SMILES | Ratio [2] | Ratio [3]
1 | 5.2 | C/C=C/C[C@@H](C)[C@@H](O)[C@H]1C(=O)N[C@@H]([C@H](O)CC)C(=O)N(C)CC(=O)N(C)[C@@H](CC(C)C)C(=O)N[C@@H](C(C)C)C(=O)N(C)[C@@H](CC(C)C)C(=O)N[C@@H](C)C(=O)N[C@H](C)C(=O)N(C)[C@@H](CC(C)C)C(=O)N(C)[C@@H](CC(C)C)C(=O)N(C)C(C(C)C)C(=O)N1C (single isomer, unassigned) | 3 | 2.3
2 | 1.4 | C/C=C/C[C@@H](C)[C@@H](O)[C@H]1C(=O)N[C@@H]([C@@H](C)O)C(=O)N(C)CC(=O)N(C)[C@@H](CC(C)C)C(=O)N[C@@H](C(C)C)C(=O)N(C)[C@@H](CC(C)C)C(=O)N[C@@H](C)C(=O)N[C@H](C)C(=O)N(C)[C@@H](CC(C)C)C(=O)N(C)[C@@H](CC(C)C)C(=O)N(C)C(C(C)C)C(=O)N1C (single isomer, unassigned) | 1 | 1.7
3 | 207 | C/C=C/C[C@@H](C)[C@@H](O)[C@H]1C(=O)N[C@@H](C[C@@H](C)O)C(=O)N(C)CC(=O)N(C)[C@@H](CC(C)C)C(=O)N[C@@H](C(C)C)C(=O)N(C)[C@@H](CC(C)C)C(=O)N[C@@H](C)C(=O)N[C@H](C)C(=O)N(C)[C@@H](CC(C)C)C(=O)N(C)[C@@H](CC(C)C)C(=O)N(C)C(C(C)C)C(=O)N1C (single isomer, unassigned) | – | –

Continued, compound first:

Row | SMILES | Ratio [1] | Ratio [2] | Ratio [3]
4 | C/C=C/C[C@@H](C)[C@@H](O)[C@H]1C(=O)N[C@@H](CC(Cl)Cl)C(=O)N(C)CC(=O)N(C)[C@@H](CC(C)C)C(=O)N[C@@H](C(C)C)C(=O)N(C)[C@@H](CC(C)C)C(=O)N[C@@H](C)C(=O)N[C@H](C)C(=O)N(C)[C@@H](CC(C)C)C(=O)N(C)[C@@H](CC(C)C)C(=O)N(C)C(C(C)C)C(=O)N1C (single isomer, unassigned) | 250 | 200 | 135
5 | C/C=C/C[C@@H](C)[C@@H](O)[C@H]1C(=O)N[C@@H](CC2CC2)C(=O)N(C)CC(=O)N(C)[C@@H](CC(C)C)C(=O)N[C@@H](C(C)C)C(=O)N(C)[C@@H](CC(C)C)C(=O)N[C@@H](C)C(=O)N[C@H](C)C(=O)N(C)[C@@H](CC(C)C)C(=O)N(C)[C@@H](CC(C)C)C(=O)N(C)C(C(C)C)C(=O)N1C (single isomer, unassigned) | 250 | 225 | 120
6 | C/C=C/C[C@@H](C)[C@@H](O)[C@H]1C(=O)N[C@@H](CCC)C(=O)N(C)CC(=O)N(C)[C@@H](CC(C)C)C(=O)N[C@@H](C(C)C)C(=O)N(C)[C@@H](CC(C)C)C(=O)N[C@@H](C)C(=O)N[C@H](C)C(=O)N(C)[C@@H](CC(C)C)C(=O)N(C)[C@@H](CC(C)C)C(=O)N(C)C(C(C)C)C(=O)N1C (single isomer, unassigned) [GECLOSPORIN] | 4 | 2.6 | 1.6
